Reference: PMC5289526, “Crystal Structure and Catalytic Mechanism of CouO, a Versatile C-Methyltransferase from Streptomyces rishiriensis” (PLoS ONE, 2017)

Biological target: T1, CouO (Streptomyces rishiriensis, UniProt Q9F8T9)
T1 construct: recombinant from E. coli; pET26b-CouO template, pMS470 vector in E. coli TOP10F' for activity assays
Assay: X-ray crystal structure, […] Å
Format: binding
Details: one SAH in each of two chains; cofactor site

T1 sequence (Q9F8T9 whole entry): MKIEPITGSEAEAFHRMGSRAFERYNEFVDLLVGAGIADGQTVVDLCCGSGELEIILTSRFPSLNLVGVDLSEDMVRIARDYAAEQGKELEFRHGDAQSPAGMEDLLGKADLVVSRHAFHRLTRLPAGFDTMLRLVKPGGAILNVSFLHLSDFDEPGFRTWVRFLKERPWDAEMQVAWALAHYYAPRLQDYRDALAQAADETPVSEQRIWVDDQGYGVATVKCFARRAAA

## Nc1ncnc2c1ncn2[C@@H]1O[C@H](CSCC[C@H](N)C(=O)O)[C@@H](O)[C@H]1O [SAH]
  X-ray crystal structure, 2.05 Å: one SAH cofactor molecule was present in each chain
